# Reference: patent US20240041042A1, “1-(PYRIDYL)-5-AZINYLPYRAZOLE DERIVATIVES, AND THEIR USE FOR CONTROL OF UNDESIRED PLANT GROWTH” (Bayer Aktiengesellschaft, priority 2020, published 2024)
# Where two headings read alike, the source gives them in different places.
# What was measured:
# Assay type in all cases: in vivo
# [1] = tested on: Polygonum convolvulus (POLCO); experiment: Post-emergence herbicidal action against POLCO
# How it was run: (§1)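 Greenhouse plants sprayed at the one-leaf stage, 2–3 weeks after sowing, with WP or EC formulations plus 0.5% additive at 600 l/ha water. Activity rated visually after about 3 weeks versus untreated controls (100% = dead, 0% = like control), at 320 g/ha or lower.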
# [2] = tested on: Echinochloa crus-galli (ECHCG); experiment: Pre-emergence herbicidal action against ECHCG
# How it was run: (§2)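 Pre-emergence soil-surface spray, WP/EC formulation, 0.5% additive, 600 l/ha water, rates of 320 g/ha or lower. Greenhouse, ~3 wk. Visual score, % of untreated control (100% = plants dead, 0% = like control).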
# [3] = tested on: Digitaria sanguinalis (DIGSA); experiment: Post-emergence herbicidal action against DIGSA; details: visual rating about 3 weeks after treatment
# How it was run: as §1
# Viola tricolor (VIOTR) = experiment: Pre-emergence herbicidal action against VIOTR
# How it was run: as §2
# [4] = tested on: Digitaria sanguinalis (DIGSA); experiment: Pre-emergence herbicidal action against DIGSA
# How it was run: as §2
# Avena fatua (AVEFA) = experiment: Post-emergence herbicidal action against AVEFA; details: visual rating about 3 weeks after treatment
# How it was run: as §1
# Oryza sativa (ORYSA) = details: crop plant compatibility
# How it was run: (§3)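 Percent effect on the crop was judged by eye against untreated controls, where 0% means like control and 100% means dead plants. Plants had been sprayed post-emergence at the one-leaf stage and then kept under optimum greenhouse conditions for about 3 weeks.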
# Zea mays (ZEAMX) = details: crop plant compatibility, 80 g/ha, effect vs untreated controls
# How it was run: as §3
# [5] = 80 g/ha, visual scoring after about 3 weeks vs untreated controls
# [6] = 80 g/ha, effect in comparison to untreated controls
Post-emergence action against ORYSA in % (Oryza sativa (ORYSA); [6]) [%],Post-emergence action against ZEAMX in % (Zea mays (ZEAMX)) [%],"Post-emergence action against ORYSA in % (Oryza sativa (ORYSA); 20 g/ha, effect vs untreated controls) [%]","Post-emergence action against ORYSA in % (Oryza sativa (ORYSA); 320 g/ha, effect in comparison to untreated controls) [%]",SMILES,Post-emergence action against POLCO in % ([1]; dosage 80 g/ha) [%],Post-emergence action against POLCO in % ([1]; dosage 320 g/ha) [%],Pre-emergence action against ECHCG in % ([2]; dosage 80 g/ha) [%],Pre-emergence action against ECHCG in % ([2]; dosage 320 g/ha) [%],Post-emergence action against DIGSA in % ([3]; 80 g/ha) [%],Post-emergence action against DIGSA in % ([3]; 320 g/ha) [%],"Pre-emergence action against VIOTR in % (Viola tricolor (VIOTR); 320 g/ha, Viola tricolor) [%]",Pre-emergence action against VIOTR in % (Viola tricolor (VIOTR); dosage 80 g/ha) [%],"Pre-emergence action against DIGSA in % [4, 5] [%]",Pre-emergence action against DIGSA in % ([4]; dosage 320 g/ha) [%],Post-emergence action against AVEFA in % (Avena fatua (AVEFA); 80 g/ha) [%],Post-emergence action against AVEFA in % (Avena fatua (AVEFA); 320 g/ha) [%]
,,,,C[C@@H](Oc1nn(-c2nc(F)ccc2F)c(-c2cncc(F)c2)c1C1CC1)C(=O)O [Example I-180],80,90,100,100,80,80,100,100,90,100,80,90
,,,,CCOC(=O)COc1nn(-c2ncccc2F)c(-c2cncc(F)c2)c1C1CC1 [Example I-174],,80,100,100,90,90,100,100,100,100,80,90
,,,,CCOC(=O)COc1nn(-c2nc(F)ccc2F)c(-c2cncc(F)c2)c1C1CC1 [Example I-149],,80,90,100,80,90,100,100,90,100,,80
20,,,,O=C(O)COc1nn(-c2ncccc2F)c(-c2cncc(F)c2)c1C1CC1 [Example I-175],80,80,100,100,90,90,100,100,100,100,80,80
0,,,,COC(=O)C(C)COC(=O)C(C)Oc1nn(-c2ccccn2)c(-c2ccc(F)nc2)c1Cl (stereo not drawn) [Example I-291],80,80,,90,,,100,90,100,100,80,80
,,,,COC(=O)[C@@H](C)Oc1nn(-c2nc(F)ccc2F)c(-c2cncc(F)c2)c1C1CC1 [Example I-171],80,90,100,100,,80,100,100,80,100,90,90
,,,,"COC(=O)[C@@H](C)Oc1nn(-c2ncccc2F)c(-c2ccc(F)nc2)c1Br [Example I-05, Methyl (2R)-2-{[4-bromo-1-(3-fluoropyridin-2-yl)-5-(6-fluoropyridin-3-yl)-1H-pyrazol-3-yl]oxy}propanoate]",90,90,,100,,90,100,90,100,100,90,90
0,,,,CCOC(=O)[C@@H](C)Oc1nn(-c2nc(F)ccc2F)c(-c2cncc(F)c2)c1Cl [Example I-208],,80,90,100,80,90,100,100,90,100,,
,,,,O=C(O)COc1nn(-c2ncccc2F)c(-c2ccc(F)nc2)c1Br [Example I-08],90,90,80,100,,90,100,100,100,100,80,90
,,,,COC(=O)COc1nn(-c2nc(F)ccc2F)c(-c2cncc(F)c2)c1C1CC1 [Example I-164],,,90,100,80,90,100,100,90,100,80,80
10,,,,C[C@@H](Oc1nn(-c2ncccc2F)c(-c2ccc(F)nc2)c1I)C(=O)O [Example I-343],80,80,,100,,,100,100,,,80,80
0,0,,,COC(=O)[C@@H](C)Oc1nn(-c2ncccc2F)c(-c2ccc(F)nc2)c1I [Example I-341],80,80,80,100,,,100,100,,,80,80
,,,,O=C(O)COc1nn(-c2nc(F)ccc2F)c(-c2cncc(F)c2)c1C1CC1 [Example I-148],,,90,100,80,90,100,100,90,100,,80
20,,,,COC(=O)[C@@H](C)COC(=O)COc1nn(-c2ccccn2)c(-c2cncc(F)c2)c1Br [Example I-194],,,80,100,80,90,100,,90,100,,90
10,,0,20,C[C@@H](Oc1nn(-c2ncccc2F)c(-c2ccc(F)nc2)c1Br)C(=O)O [Example I-18],,,90,90,90,90,100,100,100,100,,80
